The record followed here is patent US7569541B2 (priority 2003, dated 2009).

The subject of the assay is P. falciparum. The settings on record: in vivo.

Regarding “Asn-Pro-Asn-Ala-Asn-(Apro-Asn-Ala-Asn-Pro-Asn-Ala-Asn-Pro-Asn-Glu)cyclo-Asn-Pro-Asn-Ala attached to a PE moiety [UK39]”, the Antigenicity result is recorded as “excellent”.
